Measured values published in US20260242438A1 (INSTITUTE OF MATERIA MEDICA, CHINESE ACADEMY OF MEDICAL …, priority 2022, published 2026).
Where a SMILES comes first, the peptide text is derived from it. Bridges are numbered along the chain shown (N, C = ends).

Molecular target: chymotrypsin (Bos taurus, UniProt P00766)
Assay: Determination of enzyme inhibitory activity against chymotrypsin (substrate AAPFpNA, OD 405 nm)
Assay type: biochemical
Settings: for IC50: chymotrypsin 30 nM, AAPFpNA 0.5 mM, pH 7.8, 37° C.; for remaining activity at 0.0001 µM: peptide 0.0001 μM; for remaining activity at 0.001 µM: peptide 0.001 μM; for remaining activity at 0.01 µM: peptide 0.01 μM; for remaining activity at 0.02 µM: peptide 0.02 μM; for remaining activity at 0.04 µM: peptide 0.04 μM; for remaining activity at 0.08 µM: peptide 0.08 μM; for remaining activity at 0.1 µM: peptide 0.1 μM; for remaining activity at 1 µM: peptide 1 μM; for remaining activity at 10 µM: peptide 10 μM; for remaining activity at 0.25 µM: peptide 0.25 μM; for remaining activity at 0.5 µM: peptide 0.5 μM; for remaining activity at 100 µM: peptide 100 μM; for remaining activity at 0.05 µM: peptide 0.05 μM
Procedure: The substrates N-succinyl-Ala-Ala-Pro-Phe-p-nitroaniline (AAPFpNA) is used in competitive binding reaction to determine the inhibitory activities against α -chymotrypsin. Experiments for a-chymotrypsin was measured in 20 mM CaCl2, 50 mM Tris-HCl buffer (pH 7.8). The concentration of the peptide was measured using optical density (OD) at 280 nm. The Michaelis constant (Km) of the enzyme hydrolysis substrate is calculated from the initial rate of substrate hydrolysis at 405 nm. The absorbance value of the substrate was measured at 405 nm after complete hydrolysis. All data were processed using nonlinear regression.
(1) Added a total 190 μL of reaction buffer (20 mM CaCl2, 50 mM Tris-HCl (pH 7.8)), different concentrations of anti-chymorypsin peptides (CHs) into the pre-cold 96 well plate, followed by preheating at 37° C. for 5 min and centrifugated at 500 rpm for 1 min and allowed to stand for 4 minutes. Then added 8 μL of 750 nM chymotrypsin and incubated at 37° C. for 10 min, and centrifugated at 500 rpm for 1 min and allowed to stand for 9 minutes. Finally, added 2 μL of 50 mM AAPFpNA, and mixed by centrifugation at 500 rpm for 1 min. The plate was incubated at 37° C. for 90 min, and the absorbance value at 405 nm was measured. Three repetitions were made, and only reaction buffer and substrate were added in the blank control as the minimum absorption value (Min OD 405 nm); Only reaction buffer, enzyme and substrate were added in the negative control as the maximum absorption value (Max OD 405 nm).
(2) In the 200 μL of reaction system, the final concentrations of chymotrypsin and AAPFpNA were 30 nM and 0.5 mM, respectively.
Plotted the residual activity of enzyme with […] to obtain the half inhibitory concentration (IC50) of anti-chymorypsin peptides (CHs). Then, substituted it into the formula […]/(1+S/Km) (S, IC50, and Km were substrate concentration, half inhibitory concentration, and Michaelis constant, respectively) to obtain the inhibition constant Ki of anti-chymorypsin peptides (CHs).

[1] = read-out: Residual activity of chymotrypsin

Row | SMILES | Ki [nM] | IC50 [nM] | remaining activity at 0.0001 µM [1] [%] | remaining activity at 0.001 µM [1] [%] | remaining activity at 0.01 µM [1] [%] | remaining activity at 0.02 µM [1] [%] | remaining activity at 0.04 µM [1] [%] | remaining activity at 0.08 µM [1] [%] | remaining activity at 0.1 µM [1] [%] | remaining activity at 1 µM [1] [%] | remaining activity at 10 µM [1] [%] | remaining activity at 0.015 µM (peptide 0.015 μM, read-out: Residual activity of chymotrypsin) [%] | IC50 reduced (fold) (relative to CH55) [times] | remaining activity at 0.06 µM (peptide 0.06 μM, read-out: Residual activity of chymotrypsin) [%] | remaining activity at 0.25 µM [1] [%] | remaining activity at 0.5 µM [1] [%] | remaining activity at 100 µM [1] [%] | remaining activity at 0.05 µM [1] [%]
1 | CC[C@H](C)[C@@H]1NC(=O)[C@@H]2CCCN2C(=O)[C@@H]2CCCN2C(=O)[C@H]([C@@H](C)CC)NC(=O)[C@H](CO)NC(=O)[C@H](Cc2ccccc2)NC(=O)[C@H]([C@@H](C)O)NC(=O)[C@@H](NC(=O)[C@H](CCCNC(=N)N)NC(=O)CN)CSSC[C@@H](C(=O)N[C@@H](Cc2ccccc2)C(=O)N2CCC[C@H]2C(=O)N[C@@H](CC(=O)O)C(=O)O)NC1=O [CH54] (H-GRCTFSIPPICFPD-OH; disulfide 3-11; C-terminus assumed) | 10 | 30 | 100.6 ± 0.9 | 101.7 ± 0.6 | 100 ± 2.9 | 68.8 ± 4 | 34.2 ± 3.9 | 15.2 ± 1.9 | 13.8 ± 3.3 | 0.4 ± 0.2 | -0.1 |  |  |  |  |  |  | 
2 | CC[C@H](C)[C@@H]1NC(=O)[C@@H]2CCCN2C(=O)[C@@H]2CCCN2C(=O)[C@H]([C@@H](C)CC)NC(=O)[C@H](CO)NC(=O)[C@H](Cc2ccc(O)cc2)NC(=O)[C@H]([C@@H](C)O)NC(=O)[C@@H](NC(=O)[C@H](CCCNC(=N)N)NC(=O)CN)CSSC[C@@H](C(=O)N[C@@H](Cc2ccccc2)C(=O)N2CCC[C@H]2C(=O)O)NC1=O [CH56] (H-GRCTYSIPPICFP-OH; disulfide 3-11; C-terminus assumed) | 270 | 620 |  |  |  |  |  |  |  |  |  |  | 30 |  |  |  |  | 
3 | CC[C@H](C)[C@@H]1NC(=O)[C@@H]2CCCN2C(=O)[C@@H]2CCCN2C(=O)[C@H]([C@@H](C)CC)NC(=O)[C@H](CO)NC(=O)[C@H](Cc2ccc(O)cc2)NC(=O)[C@H]([C@@H](C)O)NC(=O)[C@@H](NC(=O)[C@H](CCCNC(=N)N)NC(=O)CN)CSSC[C@@H](C(=O)N[C@@H](Cc2ccccc2)C(=O)O)NC1=O [CH57] (H-GRCTYSIPPICF-OH; disulfide 3-11; C-terminus assumed) | 20 | 40 | 99 ± 1.3 | 100.2 ± 0.3 | 98 ± 5.1 | 66 ± 7.5 | 48.4 ± 5.8 | 19.1 ± 4.6 |  | 0.9 ± 0.3 | -0.2 ± 0.2 |  |  | 38.1 ± 7.9 |  |  |  | 
4 | CC[C@H](C)[C@@H]1NC(=O)[C@@H]2CCCN2C(=O)[C@@H]2CCCN2C(=O)[C@H]([C@@H](C)CC)NC(=O)[C@H](CO)NC(=O)[C@H](Cc2ccc(O)cc2)NC(=O)[C@H]([C@@H](C)O)NC(=O)[C@@H](NC(=O)[C@@H](N)CCCNC(=N)N)CSSC[C@@H](C(=O)N[C@@H](Cc2ccccc2)C(=O)O)NC1=O [CH58] (H-RCTYSIPPICF-OH; disulfide 2-10; C-terminus assumed) | 120 | 270 |  |  |  |  |  |  |  |  |  |  |  |  |  |  |  | 
5 | CC[C@H](C)[C@@H]1NC(=O)[C@@H]2CCCN2C(=O)[C@@H]2CCCN2C(=O)[C@H]([C@@H](C)CC)NC(=O)[C@H](CO)NC(=O)[C@H](Cc2ccc(O)cc2)NC(=O)[C@H]([C@@H](C)O)NC(=O)[C@@H](NC(=O)[C@@H](N)[C@@H](C)O)CSSC[C@@H](C(=O)N[C@@H](CC(N)=O)C(=O)O)NC1=O [CH63] (H-TCTYSIPPICN-OH; disulfide 2-10; C-terminus assumed) | 1320 | 3050 |  |  |  |  |  |  |  |  |  |  |  |  |  |  |  | 
6 | CC[C@H](C)[C@@H]1NC(=O)[C@@H]2CCCN2C(=O)[C@@H]2CCCN2C(=O)[C@H]([C@@H](C)CC)NC(=O)[C@H](CO)NC(=O)[C@H](Cc2ccc(O)cc2)NC(=O)[C@H]([C@@H](C)O)NC(=O)[C@@H](NC(=O)[C@@H](N)CCCCN)CSSC[C@@H](C(=O)N[C@@H](Cc2ccccc2)C(=O)O)NC1=O [CH64] (H-KCTYSIPPICF-OH; disulfide 2-10; C-terminus assumed) | 400 | 930 |  |  |  |  |  |  |  |  |  |  |  |  |  |  |  | 

Continued, values first:

Row | Ki [nM] | IC50 [nM] | remaining activity at 0.0001 µM [1] [%] | remaining activity at 0.001 µM [1] [%] | remaining activity at 0.01 µM [1] [%] | remaining activity at 0.02 µM [1] [%] | remaining activity at 0.04 µM [1] [%] | remaining activity at 0.08 µM [1] [%] | remaining activity at 0.1 µM [1] [%] | remaining activity at 1 µM [1] [%] | remaining activity at 10 µM [1] [%] | remaining activity at 0.015 µM (peptide 0.015 μM, read-out: Residual activity of chymotrypsin) [%] | IC50 reduced (fold) (relative to CH55) [times] | remaining activity at 0.06 µM (peptide 0.06 μM, read-out: Residual activity of chymotrypsin) [%] | remaining activity at 0.25 µM [1] [%] | remaining activity at 0.5 µM [1] [%] | remaining activity at 100 µM [1] [%] | remaining activity at 0.05 µM [1] [%] | SMILES
7 | 8.6 | 20 | 102.1 ± 1 | 101.6 ± 0.9 |  | 45.8 ± 10 | 21.8 ± 4.2 | 11.6 ± 1.2 | 8 ± 2.4 | 0.9 ± 0.1 | 0.1 | 68.1 ± 3.7 |  |  |  |  |  |  | CC[C@H](C)[C@@H]1NC(=O)[C@@H]2CCCN2C(=O)[C@@H]2CCCN2C(=O)[C@H]([C@@H](C)CC)NC(=O)[C@H](CO)NC(=O)[C@H](Cc2ccc(O)cc2)NC(=O)[C@H]([C@@H](C)O)NC(=O)[C@@H](NC(=O)[C@H](CCCNC(=N)N)NC(=O)CN)CSSC[C@@H](C(=O)N[C@@H](Cc2ccccc2)C(=O)N2CCC[C@H]2C(=O)N[C@@H](CC(=O)O)C(=O)O)NC1=O [CH55] (H-GRCTYSIPPICFPD-OH; disulfide 3-11; C-terminus assumed)
8 | 80 | 180 |  |  |  |  |  |  |  |  |  |  |  |  |  |  |  |  | CC[C@H](C)[C@@H]1NC(=O)[C@@H]2CCCN2C(=O)[C@@H]2CCCN2C(=O)[C@H]([C@@H](C)CC)NC(=O)[C@H](CO)NC(=O)[C@H](Cc2ccccc2)NC(=O)[C@H]([C@@H](C)O)NC(=O)[C@@H](NC(=O)[C@@H](NC(=O)CN)[C@@H](C)O)CSSC[C@@H](C(=O)N[C@@H](CC(N)=O)C(=O)N2CCC[C@H]2C(=O)N[C@@H](CC(N)=O)C(=O)O)NC1=O [CH59] (H-GTCTFSIPPICNPN-OH; disulfide 3-11; C-terminus assumed)
9 | 40 | 90 | 104.2 ± 0.8 | 104.5 ± 0.9 | 102 ± 7.6 |  |  |  | 47.6 ± 7.6 | 3 ± 0.2 | 0.7 ± 0.1 |  |  |  | 29.5 ± 4.6 | 7.4 ± 1 | 0 |  | CC[C@H](C)[C@@H]1NC(=O)[C@@H]2CCCN2C(=O)[C@@H]2CCCN2C(=O)[C@H]([C@@H](C)CC)NC(=O)[C@H](CO)NC(=O)[C@H](Cc2ccc(O)cc2)NC(=O)[C@H]([C@@H](C)O)NC(=O)[C@@H](NC(=O)[C@@H](NC(=O)CN)[C@@H](C)O)CSSC[C@@H](C(=O)N[C@@H](CC(N)=O)C(=O)N2CCC[C@H]2C(=O)N[C@@H](CC(N)=O)C(=O)O)NC1=O [CH60] (H-GTCTYSIPPICNPN-OH; disulfide 3-11; C-terminus assumed)
10 | 50 | 120 | 100.9 ± 0.6 | 100.1 ± 0.7 | 97.3 ± 5.4 |  |  |  | 44.2 ± 4.5 | 13.3 ± 1.7 | 1.7 |  |  |  |  | 24.3 ± 2.5 | 0.2 | 86.1 ± 3.3 | CC[C@H](C)[C@@H]1NC(=O)[C@@H]2CCCN2C(=O)[C@@H]2CCCN2C(=O)[C@H]([C@@H](C)CC)NC(=O)[C@H](CO)NC(=O)[C@H](Cc2ccc(O)cc2)NC(=O)[C@H]([C@@H](C)O)NC(=O)[C@@H](NC(=O)[C@@H](NC(=O)CN)[C@@H](C)O)CSSC[C@@H](C(=O)N[C@@H](CC(N)=O)C(=O)N2CCC[C@H]2C(=O)O)NC1=O [CH61] (H-GTCTYSIPPICNP-OH; disulfide 3-11; C-terminus assumed)
11 | 60 | 150 | 100.9 ± 0.8 |  | 102 ± 2.2 |  |  |  | 56.4 ± 2 | 14.2 ± 5.9 | 0.8 ± 0.1 |  |  |  | 40.9 ± 6.8 | 25.1 ± 1.5 | 0.1 | 83.4 ± 8.3 | CC[C@H](C)[C@@H]1NC(=O)[C@@H]2CCCN2C(=O)[C@@H]2CCCN2C(=O)[C@H]([C@@H](C)CC)NC(=O)[C@H](CO)NC(=O)[C@H](Cc2ccc(O)cc2)NC(=O)[C@H]([C@@H](C)O)NC(=O)[C@@H](NC(=O)[C@@H](NC(=O)CN)[C@@H](C)O)CSSC[C@@H](C(=O)N[C@@H](CC(N)=O)C(=O)O)NC1=O [CH62] (H-GTCTYSIPPICN-OH; disulfide 3-11; C-terminus assumed)
